Experimental data: publication PMC12267067, “Targeting GRPR for sex hormone-dependent cancer after loss of E-cadherin” (Nature, 2025)
No end group written: not given here.

Assays:
[1] = test system: mouse melanoma cell lines (1057, 1064, 1181, 1014); experiment: Cell growth (cell counting), mouse melanoma cell lines; format: cell-based; settings: 48 h
Procedure: (§1) Six-well tissue-culture plates were seeded with 3 × 10^5 melanoma cells in complete medium. After 24 h, the medium was replaced by low-serum medium (0.5% for murine melanoma cell lines and 1% for human melanoma cells) and the cells were incubated for a further 18 h before stimulation with 10 nM GRP (4011670 bachem) and/or 1 µM RC (R9653, Sigma-Aldrich) for 48 h. The plates were trypsinized just after stimulation or 48 h later and the cells were counted. For the MTT assay, 10,000 cells were seeded per well in 96-well plates. After 24 h, cells were starved overnight and then treated with 10 nM GRP and/or 1 µM RC for 48 h in low-serum medium (0.5% FBS). Next, MTT (M5655, Sigma-Aldrich) was added to the wells to a final concentration of 0.5 mg ml^−1 and the plates were incubated for 3 h. The medium was removed and formazan crystals dissolved in 200 µl DMSO. The absorbance was read at 570 nm using a LUMIstar Omega […] (BMG Labtech). All growth experiments were done using three technical replicates and three biological replicates. For the clonogenic assay, six-well tissue-culture plates were seeded with 500 cells in complete medium. After 10 days (20 days for 1181), colonies were fixed with 4% PFA for 15 min and stained with 10% crystal violet in ethanol for 20 min and counted in images using ImageJ software. Experiments were done in triplicate.

[2] = test system: human melanoma cell lines (MDA-MB-435S, 501mel); experiment: Cell growth (cell counting), human melanoma cell lines; format: cell-based; settings: 48 h
Procedure: as §1

[3] = test system: mouse melanoma cell lines (1057, 1064, 1181, 1039, 1456, 1014); experiment: Matrigel invasion assay, mouse melanoma cells; format: cell-based; settings: 24 h
Procedure: (§2) Matrigel invasion assays were done in transwell plates with 8.0-µm pores (353097, Falcon) coated with 100 µl of 200 µg ml^−1 Matrigel. Depending on the experiments, cells were seeded directly or 24 h after transfection in low-serum medium (0.5% FCS for murine cells and 1% for human cell lines) with 10 nM GRP, 1 µM RC-3095, and/or 1 µM IC 182,780, or in 10% FCS. Then, 24 hours after stimulation, inserts were washed with PBS and non-invading cells were removed. Cells in the inserts were fixed in methanol at −20 °C overnight. The inserts were rinsed and the membrane carefully removed using a sharp scalpel. The membrane was mounted in prolong glass DAPI (1.5 µg ml^−1). Assays were performed in triplicate and automatic counting of invading cells was done using an Image/Fiji macro (10.5281/zenodo.14509394). Sequences of siRNAs are given in Supplementary Table 11.

[4] = test system: human melanoma cell lines (MDA-MB-435S, Dauv-1, 501mel-GRPR); experiment: Matrigel invasion assay, human melanoma cells; format: cell-based; settings: 10 nM GRP and/or 1 µM RC-3095, 24 h, 1% FCS
Procedure: as §2

[5] = test system: serine/threonine kinases in 1057 cells; experiment: Kinase assay (PamGene STK PamChip); format: cell-based, mouse; settings: 10 nM GRP, 15 min
Procedure: Serine/threonine and tyrosine kinase activity were determined using STK PamChips (87102 PamGene International). All assays were done according to the manufacturer’s protocol. In brief, cells were seeded to 70% confluence and starved overnight the day after. Then, the medium was replaced by medium containing vehicle (0.1% DMSO) or 10 nM GRP and/or 1 µM RC and the cells incubated for 15 min. Cells were rinsed twice in PBS and then lysed in M-Per buffer (78503, ThermoFisher Scientific) containing Halt Phosphatase Inhibitor (78428, ThermoFisher Scientific) and Halt Protease Inhibitor (78437, ThermoFisher Scientific), both diluted 1:100. The lysates were immediately snap-frozen. Kinase activity was determined using Pamstation PS12 and 1 µg protein for the STK chips, according to the manufacturer’s protocol. The data were analysed using BioNavigator software (PamGene International), batch corrected using ComBat[71] and normalized using VSN[72]. Kinase activity was assessed using the 2018 version of the UKA tool using basic parameters (Scan rank from 4 to 12, 500 permutations, 90% homology, equivalent weight for each database, minimal prediction score of 300). The UKA tool infers the active kinase from the differentially phosphorylated peptides using databases and predicted interactions (PhosphoNet database).

With “GRP: GRPR's natural agonist, endogenous ligand of GRPR (4011670 bachem) (VPLPAGGGTVLTKMYPRGNHWAVGHLM; not fully specified; ends and bridges not checked; UniProt P07492 24-50, looked up)” as the substance, how does the “cell growth, GRPR-positive mouse lines” value ([1]; 1057 and 1064, 10 nM GRP and/or 1 µM RC, low serum 0.5%) read?
The value was “promoted growth”.

What about the “cell growth, GRPR-negative mouse cells” value ([1]; 1181 and 1014, 10 nM GRP, low serum) of the same substance?
Its value is “had no effect”.

What about the “cell growth, GRPR-negative human cells” value ([2]; 501mel, 10 nM GRP, low serum) of the same substance?
Its value is “had no effect”.

And the “cell growth, GRPR-positive human line” value ([2]; MDA-MB-435S, 10 nM GRP and/or 1 µM RC, low serum 1%)?
The value was “promoted growth”.

What about the “invasion (number of invading cells), GRPR-positive mouse lines” value ([3]; 1057 (also 1064, GRPR-transduced 1014 and 1181 for RC-3095), 10 nM GRP, 1 µM RC-3095 and/or 1 µM ICI, Matrigel 200 µg ml−1, 0.5% FCS) of the same substance?
Its value is “promoted invasion”.

And the “invasion (number of invading cells), Grpr-negative mouse lines” value ([3]; 1181 male Ecad, 1039 female Ecad, 1456 male ΔEcad, 10 nM GRP and/or 1 µM ICI)?
The value was “but not in Ecad-positive (1181 male and 1039 female) or Ecad-negative male (1456) cells”.

And the “invasion (number of invading cells), GRPR-positive human lines” value [4]?
The value was “promoted”.

What about the “kinases activated following GRPR activation” value [5] of the same substance?
Its value is “primarily triggered protein kinase C (PKC) and, to a lesser extent, PKAα and PRKX”.
